The values below come from patent US6552022B1, “Benzamide derivatives and their use as ApoB-100 secretion inhibitors” (SmithKline Beecham Corporation, priority 1998, dated 2003).

The melting point is the temperature of the solid-liquid transition. `N#Cc1cccc(CN2CCN(c3ccc(NC(=O)c4ccccc4-c4ccc(F)cc4)cc3)CC2)c1` [Example 23, 4′-Fluoro-biphenyl-2-carboxylic acid [4-[4-(3-cyano-benzyl)-piperazin-1-yl]-phenyl]-amide] returned a melting point of 200 to 202 °C. For the compound `O=C(Nc1ccc(N2CCN(Cc3c[nH]c4ccc(F)cc34)CC2)cc1)c1ccccc1-c1ccc(C(F)(F)F)cc1` [Example 73, 4′-Trifluoromethyl-biphenyl-2-carboxylic acid {4-[4-(5-fluoro-1H-indol-3-ylmethyl)-piperazin-1-yl]-phenyl}-amide], the melting point is 168 to 170 °C.

`O=C(Nc1ccc(N2CCN(Cc3cccc(F)c3)CC2)cc1)c1ccccc1-c1ccc(C(F)(F)F)cc1` (hydrate or solvate) came in with a melting point of 189 to 190.5 °C. Take `N#Cc1cccc(C(=O)N2CCN(c3ccc(NC(=O)c4ccccc4-c4ccc(C(F)(F)F)cc4)cc3)CC2)c1` [Example 80, 4′-Trifluoromethyl-biphenyl-2-carboxylic Acid [4-[4-(3-cyano-benzoyl)-piperazin-1-yl]-phenyl]-amide]: the melting point was 178.5 to 180 °C. Compound `O=C(Nc1ccc(N2CCN(Cc3nccs3)CC2)cc1)c1ccccc1-c1ccc(C(F)(F)F)cc1` (hydrate or solvate) [Example 59, 4′-Trifluoromethyl-biphenyl-2-carboxylic acid [4-(4-thiazol-2-ylmethyl-piperazin-1-yl)-phenyl]-amide] displayed a melting point of 187 to 189 °C. For `N#Cc1cccc(CN2CCN(c3ccc(NC(=O)c4ccccc4-c4cccc(C(F)(F)F)c4)cc3)CC2)c1`, the melting point was in the range of 117 to 121 °C. Next, `CC(=O)c1cccc(CN2CCN(c3ccc(NC(=O)c4ccccc4-c4ccc(C(F)(F)F)cc4)cc3)CC2)c1` [Example 66, 4′-Trifluoromethyl-biphenyl-2-carboxylic acid [4-(4-(3-acetyl-benzyl)-piperazin-1-yl)-phenyl]-amide]: 181 to 183 °C. The value for `CC(C)c1ccc(-c2cc(Cl)ccc2C(=O)Nc2ccc(N3CCN(Cc4cccc(C#N)c4)CC3)cc2)cc1` [Example 7, 5-Chloro-4′-isopropyl-biphenyl-2-carboxylic acid [4-[4-(3-cyano-benzyl)-piperazin-1-yl]-phenyl]-amide] was 188 to 190 °C.

On to `N#Cc1cccc(CN2CCN(c3ccc(NC(=O)c4ccccc4-n4cccc4)cc3)CC2)c1` [Example 85, N-{4-[4-(3-Cyano-benzyl)-piperazin-1-yl]-phenyl}-2-pyrrol-1-yl-benzamide], for which the melting point is 174 °C. The value for `NC(=O)c1cccc(CN2CCN(c3ccc(NC(=O)c4ccccc4-c4ccc(C(F)(F)F)cc4)cc3)CC2)c1` [Example 50, 4′-Trifluoromethyl-biphenyl-2-carboxylic acid {4-[4-(3-carbamoyl-benzyl)-piperazin-1-yl]-phenyl)amide] was 199 to 201 °C; that for `COc1cccc(C(=O)Nc2ccc(N3CCN(Cc4cccc(-c5nc(C)no5)c4)CC3)cc2)c1-c1ccc(C(C)C)cc1` [Example 74, 4′-Isopropyl-6-methoxy-biphenyl-2-carboxylic acid (4-(4-(3-(3-methyl-[1,2,4]oxadiazol-5-yl)-benzyl)-piperazine-1-yl)-phenyl)-amide] was 180 to 182 °C; that for `COC(=O)c1cccc(CN2CCN(c3ccc(NC(=O)c4ccccc4-c4ccc(C(F)(F)F)cc4)cc3)CC2)c1` [Example 55, 4′-Trifluoromethyl-biphenyl-2-carboxylic acid [4-[4-(3-carbomethoxy-benzyl)-piperazin-1-yl]-phenyl]-amide] was 190 to 192 °C.

In turn, `COc1cccc(C(=O)Nc2ccc(N3CCN(Cc4ccc[nH]4)CC3)cc2)c1-c1ccc(C(C)C)cc1` [Example 68, 4′-Isopropyl-6-methoxy-biphenyl-2-carboxylic acid [4-(4-(1H-pyrrol-2-ylmethyl)-piperazin-1-yl)-phenyl]-amide] came in with a melting point of 195 to 197 °C. `CC(C)c1ccc(-c2ccccc2C(=O)Nc2ccc(N3CCN(Cc4cccc(C#N)c4)CC3)cc2)cc1` had a melting point of 133 to 135 °C. Consider `COc1cccc(C(=O)Nc2ccc(N3CCN(Cc4cccc(C#N)c4)CC3)cc2)c1-c1ccc(C(F)(F)F)cc1` [Example 8, 6-Methoxy-4′-trifluoromethyl-biphenyl-2-carboxylic acid [4-[4-(3-cyano-benzyl)-piperazin-1-yl]-phenyl]-amide], for which the melting point fell in the range of 215 to 217 °C. In turn, `CCOC(=O)CN1CCN(c2ccc(NC(=O)c3ccccc3-c3ccc(C(F)(F)F)cc3)cc2)CC1` [Example 42, 4′-Trifluoromethyl-biphenyl-2-carboxylic acid [4-(4-ethoxycarbonylmethyl-piperazin-1-yl)-phenyl)-amide] registered a melting point of 167 to 169 °C.

As to `O=C(Nc1ccc(N2CCN(Cc3ccc(F)cc3)CC2)cc1)c1ccccc1-c1ccc(C(F)(F)F)cc1` [Example 52, 4′-Trifluoromethyl-biphenyl-2-carboxylic acid [4-[4-(4-fluoro-benzyl)-piperazin-1-yl]-phenyl]-amide], the melting point fell in the range of 198 to 200 °C.

With `CCCN1CCN(c2ccc(NC(=O)c3ccccc3-c3ccc(C(F)(F)F)cc3)cc2)CC1` [Example 65, 4′-Trifluoromethyl-biphenyl-2-carboxylic acid [4-(4-propyl-piperazin-1-yl)-phenyl]-amide], the melting point is 207 to 209 °C. For the compound `O=C(Nc1ccc(N2CCN(CCCO)CC2)cc1)c1ccccc1-c1ccc(C(F)(F)F)cc1` [Example 44, 4′-Trifluoromethyl-biphenyl-2-carboxylic acid [4-(4-(3-hydroxy-propyl)-piperazin-1-yl]-phenyl]-amide], the melting point was in the range of 208 to 210 °C. As for `COc1cccc(CN2CCN(c3ccc(NC(=O)c4ccccc4-c4ccc(C(F)(F)F)cc4)cc3)CC2)c1` (hydrate or solvate), the melting point is 168 to 170 °C. For the compound `O=C(NCC(F)(F)F)c1cccc(CN2CCN(c3ccc(NC(=O)c4ccccc4-c4ccc(C(F)(F)F)cc4)cc3)CC2)c1` [Example 79, 4′-Trifluoromethyl-biphenyl-2-carboxylic Acid (4-{4-[3-(2,2,2-trifluoro-ethylcarbamoyl)-benzyl]-piperazin-1-yl}-phenyl)-amide], the melting point lay within 205 to 207 °C. For `Cc1ccc(-c2ccccc2C(=O)Nc2ccc(N3CCN(Cc4cccc(C#N)c4)CC3)cc2)c(C)c1`, the melting point was in the range of 72 to 76 °C. Next, `O=C(Nc1ccc(N2CCN(Cc3cccs3)CC2)cc1)c1ccccc1-c1ccc(C(F)(F)F)cc1` [Example 70, 4′-Trifluoromethyl-biphenyl-2-carboxylic acid [4-(4-thiophen-2-ylmethyl-piperazin-1-yl)-phenyl]-amide]: 181 to 183 °C; `N#Cc1cccc(CN2CCN(c3cccc(NC(=O)c4ccccc4-c4ccc(C(F)(F)F)cc4)c3)CC2)c1` [Example 36, 4′-Trifluoromethyl-biphenyl-2-carboxylic Acid [3-[4-(3-cyano-benzyl)-piperazin-1-yl]-phenyl]-amide]: 170 to 172 °C.
